{"source": "patent US10662411B2", "about": "“Culture method for stable proliferation of pluripotent stem cell while maintaining undifferentiated state” (AJINOMOTO CO., INC., priority 2013, dated 2020)", "format_in_all_cases": "cell-based, human", "key": {"[1]": {"tested_on": "induced pluripotent stem cells (iPS cells, 201B7 strain)", "test": "Influence of oleic acid carried by albumin on cell proliferation", "settings": "oleic acid carried by albumin 2.2, 6.5, 21.7 mg/g (20, 60, 200 μM in medium); albumin 2.6 g/l, ethanolamine 30 μM; one week", "method": "(§1) In the following Examples, proliferation effects of various test compounds on human pluripotent stem cells were evaluated. As human pluripotent stem cells, induced pluripotent stem cells (iPS cells, 201B7 strain) purchased from iPS Academia Japan, Inc. were used, unless particularly specified. Cell culture was performed using a culture vessel (Becton, Dickinson and Company, Falcon culture petri dish or Falcon culture plate) coated with a basal lamina matrix under the conditions of 5% CO2/37° C.\nFurthermore, a suspension of activated carbon (5 g, manufactured by Wako Pure Chemical Industries, Ltd.) heated at 200° C. for 30 min in advance in phosphate buffer (20 ml) was added to 100 ml. After stirring at 4° C. for 3 hr, the mixture was centrifuged at 4° C., 11,900 rpm for 20 min. […] Ethanolamine (final concentration 30 μM) was added to each medium. Using each medium, the cells were cultured for one week, and the cell number after culture was confirmed to study the influence of oleic acid. 13,000 viable cells per well were used for single cell-seeding. As a basal lamina matrix, a fragment containing the active domain of laminin 511, which was purchased from Osaka University, was applied at 4.8 μg/well. […] The number of viable cells was measured by Cell Viability autoanalyzer ViCELL™ XR (BECKMAN COULTER)."}, "[2]": {"tested_on": "induced pluripotent stem cells (iPS cells, 201B7 strain)", "test": "Proliferation promoting effect of ethanolamine analogs, laminin 511 fragment, single cell-seeding", "settings": "1 week", "method": "as §1\n(§2) Various test compounds were added to a medium having the “E8” composition (disclosed in Nature Methods, 2011, 8, 424-429, which is incorporated herein by reference in its entirety) considered at present to be the minimum composition for cultivating human pluripotent stem cells at given concentrations and used for culture, and the effects thereof were studied. The medium was prepared by using Essential 8 (Life Technologies: A14666SA) considered to have the “E8” composition or a medium formulated to have an equivalent composition.\n(§3) After the culture, the cell number was counted to examine the effect of O-phosphoryl ethanolamine. The culture period was set to 1 week. 13,000 viable cells per well were used for single cell-seeding. As a basal lamina matrix, a fragment containing the active domain of laminin 511, which was purchased from Osaka University, was applied at 4.8 μg/well. Y-27632 was added (final concentration 10 μM, Nacalai Tesque: 08945-84) to the medium used for seeding. The cells were cultured in a medium free of Y-27632 from the following day. The number of viable cells was measured by Cell Viability autoanalyzer ViCELL™ XR (BECKMAN COULTER).\nas §3, with “2-(methylamino)ethanol.” for “O-phosphoryl ethanolamine.”\nas §3, with “2-dimethylaminoethanol.” for “O-phosphoryl ethanolamine.”\nas §3, with “ethanolamine hydrochloride.” for “O-phosphoryl ethanolamine.”, “The cells were cultured in a medium free of Y-27632 from the following day.” left out"}, "[3]": {"tested_on": "induced pluripotent stem cells (iPS cells, 201B7 strain)", "test": "Proliferation promoting effect of ethanolamine and combination with albumin, laminin 511 fragment, single cell-seeding", "settings": "1 week", "method": "as §1, §2\nEthanolamine (Sigma-Aldrich Co. LLC: E0135) was added at a final concentration of 6, 30, 150, 750 or 3,750 μM, and the medium was used for culture immediately after preparation, and the effect of ethanolamine was examined by studying the cell numbers after culture. The culture period was 1 week. […] 13,000 viable cells per 1 well were used for single cell-seeding. As a basal lamina matrix, a fragment containing the active domain of laminin 511, which was purchased from Osaka University, was applied at 5 μg/well. Y-27632 was added (final concentration 10 μM, Nacalai Tesque: 08945-84) to the medium used for seeding. The cells were cultured in a medium free of Y-27632 from the following day. The number of viable cells was measured by Trypan Blue (Life Technologies: 15250-061) staining using a hemocytometer."}, "[4]": {"tested_on": "induced pluripotent stem cells (iPS cells, 201B7 strain)", "test": "Proliferation promoting effect of ethanolamine, culture using matrigel", "settings": "6, 30, 150, 750 or 3,750 μM, 8 days, single cell-seeding", "method": "as §1, §2\nEthanolamine (Sigma-Aldrich Co. LLC: E0135) was added at a final concentration of 6, 30, 150, 750 or 3,750 μM, and the medium was used for culture immediately after preparation, and the effect of ethanolamine was examined by studying the cell numbers after culture. The culture period was 8 days. 100,000 cells per 1 well were used for single cell-seeding. […]"}, "[5]": {"settings": "6, 30, 150 or 750 μM in medium with albumin 2.6 g/l"}}, "note": "Where a name gives a salt, the structure may show the parent alone."}
{"molecule": "CCCCCCCC/C=C\\CCCCCCCC(=O)O", "note": "[oleic acid]", "values": [{"measurement": "cell number after culture", "setting": "[1]", "value": "cell proliferation was suppressed along with an increasing amount of oleic acid carried by albumin"}]}
{"molecule": "CN(C)CCO", "note": "[2-dimethylaminoethanol]", "values": [{"measurement": "cell number relative to non-addition group (0 μM)", "setting": "[2]; [5]", "value": "proliferation promoting effect in a relatively wide concentration range"}, {"measurement": "cell number relative to non-addition group (0 μM)", "setting": "[2]; high concentration range, medium with albumin 2.6 g/l", "value": "proliferation suppressive effect appears in a high concentration range"}]}
{"molecule": "NCCO", "note": "[ethanolamine hydrochloride]", "values": [{"measurement": "cell number relative to non-addition group (0 μM)", "setting": "[2]; [5]", "value": "proliferation-promoting effect in a relatively wide concentration range"}]}
{"molecule": "CNCCO", "note": "[2-(methylamino)ethanol]", "values": [{"measurement": "cell number relative to non-addition group (0 μM)", "setting": "[2]; [5]", "value": "proliferation-promoting effect in a relatively wide concentration range"}]}
{"molecule": "NCCO", "note": "[ethanolamine]", "values": [{"measurement": "cell number relative to non-addition group (0 μM)", "setting": "[3]; 6, 30, 150, 750 or 3,750 μM, without albumin", "value": "proliferation-promoting effect in a relatively wide concentration range"}, {"measurement": "cell number relative to non-addition group (0 μM)", "setting": "[3]; 6-3,750 μM combined with albumin 2.6 g/l", "value": "combination with albumin further enhances the proliferation promoting effect"}, {"measurement": "cell number relative to non-addition group (0 μM)", "setting": "[3]; high concentration range combined with albumin 2.6 g/l", "value": "resists a proliferation suppressive effect in a high concentration range, and shows a proliferation promoting effect"}, {"measurement": "cell number relative to non-addition group (0 μM)", "setting": "[3]; high concentration range, without albumin", "value": "proliferation suppressive effect conversely appears in a high concentration range"}, {"measurement": "cell number after culture", "setting": "[4]", "value": "proliferation promoting effect in a wide concentration range"}]}
{"molecule": "NCCOP(=O)(O)O", "note": "[O-phosphoryl ethanolamine]", "values": [{"measurement": "cell number relative to non-addition group (0 μM)", "setting": "[2]; [5]", "value": "proliferation-promoting effect in a relatively wide concentration range"}]}
